The structures appear in SMILES notation. pIC50: −log10 of the molar value.

The target of the first experiment is T1, full-length human PKCι (Homo sapiens, UniProt P41743).
T1 construct: Recombinant, full-length human PKCι expressed in Sf21 insect cells is also commercially available; purchased; host or cells: Sf21 insect cells
T1 sequence (P41743 1-596): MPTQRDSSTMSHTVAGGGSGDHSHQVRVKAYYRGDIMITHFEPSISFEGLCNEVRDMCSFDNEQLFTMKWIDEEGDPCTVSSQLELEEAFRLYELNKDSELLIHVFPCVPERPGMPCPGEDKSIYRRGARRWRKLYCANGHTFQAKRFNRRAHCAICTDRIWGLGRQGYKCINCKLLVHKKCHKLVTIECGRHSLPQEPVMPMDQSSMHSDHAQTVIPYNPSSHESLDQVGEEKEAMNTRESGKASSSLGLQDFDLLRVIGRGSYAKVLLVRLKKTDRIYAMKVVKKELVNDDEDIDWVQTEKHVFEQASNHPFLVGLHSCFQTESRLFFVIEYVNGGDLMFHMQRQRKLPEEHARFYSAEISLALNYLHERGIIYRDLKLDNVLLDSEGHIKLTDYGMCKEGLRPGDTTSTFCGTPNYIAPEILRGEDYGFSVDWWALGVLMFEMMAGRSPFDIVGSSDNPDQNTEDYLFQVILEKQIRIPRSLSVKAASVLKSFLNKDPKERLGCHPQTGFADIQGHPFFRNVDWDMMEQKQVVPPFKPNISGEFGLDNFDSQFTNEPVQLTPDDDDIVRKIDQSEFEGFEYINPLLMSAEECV
In words: PKCι IC50 IMAP fluorescence polarisation assay, full-length enzyme. The conditions noted are these: full length PKCi at 15 μM ATP; read-out: IC50 in IMAP assay against full length PKCi. Type of experiment: biochemical.
On to `CC(C)(C)/C=C/c1csc2c(NC[C@@H](N)Cc3ccccc3)nc(-c3ccncc3)nc12` [compound 406, (S)-N*1*-[7-((E)-3,3-Dimethyl-but-1-enyl)-2-pyridin-4-yl-thieno[3,2-d]pyrimidin-4-yl]-3-phenyl-propane-1,2-diamine], for which the negative logarithm of the IC50 (pIC50) is 5.00 to 6.00. As for `CC(C)(C)c1sc2c(NC[C@@H](N)Cc3ccccc3)nc(-c3ccncc3)nc2c1-c1ccc(F)nc1` [compound 443, (S)-N*1*-[6-tert-Butyl-7-(6-fluoro-pyridin-3-yl)-2-pyridin-4-yl-thieno[3,2-d]pyrimidin-4-yl]-3-phenyl-propane-1,2-diamine], the negative logarithm of the IC50 (pIC50) is 4.40 to 5.00. With `Brc1csc2c(NC[C@@H]3CCCN3)nc(-c3ccncc3)nc12` [compound 341, (7-Bromo-2-pyridin-4-yl-thieno[3,2-d]pyrimidin-4-yl)-(S)-1-pyrrolidin-2-ylmethyl-amine], the negative-log IC50 (pIC50) is 4.40 to 5.00. Turning to `N[C@H](CNc1nc(-c2ccncc2)nc2c(C#Cc3cscn3)csc12)Cc1ccccc1` [compound 548, (S)-3-Phenyl-N*1*-(2-pyridin-4-yl-7-thiazol-4-ylethynyl-thieno[3,2-d]pyrimidin-4-yl)-propane-1,2-diamine], the pIC50 was 6.00 to 7.00. The same measure, in the same setting: next, `Brc1csc2c(N3CCNCC3)nc(-c3ccncc3)nc12` [compound 350, 7-Bromo-4-piperazin-1-yl-2-pyridin-4-yl-thieno[3,2-d]pyrimidine]: 6.00 to 7.00; `Cc1sc2c(NCCN)nc(-c3ccncc3)nc2c1C` [compound 309, N*1*-(6,7-Dimethyl-2-pyridin-4-yl-thieno[3,2-d]pyrimidin-4-yl)-ethane-1,2-diamine]: 5.00 to 6.00; `N[C@H](CNc1nc(-c2ccncc2)nc2c(-c3cn[nH]c3)csc12)Cc1ccccc1` [compound 393, (S)-3-Phenyl-N*1*-[7-(1H-pyrazol-4-yl)-2-pyridin-4-yl-thieno[3,2-d]pyrimidin-4-yl]-propane-1,2-diamine]: 6.00 to 7.00.

`CC(C)(O)C#Cc1csc2c(NC[C@@H](N)Cc3ccccc3)nc(-c3ccncc3F)nc12` [compound 509, 4-[4-((S)-2-Amino-3-phenyl-propylamino)-2-(3-fluoro-pyridin-4-yl)-thieno[3,2-d]pyrimidin-7-yl]-2-methyl-but-3-yn-2-ol]: the negative logarithm of the IC50 (pIC50) is 6.00 to 7.00. `c1cc(-c2nc(N[C@@H]3CCNC3)c3sccc3n2)cc(NCC2CC2)n1` [compound 597, {2-[2-(Cyclopropylmethyl-amino)-pyridin-4-yl]-thieno[3,2-d]pyrimidin-4-yl}-(R)-pyrrolidin-3-yl-amine]: the pIC50 is 5.00 to 6.00. Consider `Cc1sc2c(NC[C@H](C)N)nc(-c3ccncc3)nc2c1Br` [compound 331, (S)-N*1*-(7-Bromo-6-methyl-2-pyridin-4-yl-thieno[3,2-d]pyrimidin-4-yl)-propane-1,2-diamine], for which the negative-log IC50 (pIC50) is 5.00 to 6.00. Same read-out and setting: next, `Cc1ccccc1-c1csc2c(NC[C@@H](N)Cc3ccccc3)nc(-c3ccncc3F)nc12` [compound 433, (S)-N*1*-[2-(3-Fluoro-pyridin-4-yl)-7-o-tolyl-thieno[3,2-d]pyrimidin-4-yl]-3-phenyl-propane-1,2-diamine]: 5.00 to 6.00; `N[C@H](CNc1nc(-c2ccncc2)nc2c(C#Cc3ccccn3)csc12)Cc1ccccc1` [compound 529, (S)-3-Phenyl-N*1*-(2-pyridin-4-yl-7-pyridin-2-ylethynyl-thieno[3,2-d]pyrimidin-4-yl)-propane-1,2-diamine]: 6.00 to 7.00.

In the case of `N[C@H](CNc1nc(-c2ccncc2F)nc2c(-c3cc[nH]c3)csc12)Cc1ccccc1` [compound 420, (S)-N*1*-[2-(3-Fluoro-pyridin-4-yl)-7-(1H-pyrrol-3-yl)-thieno[3,2-d]pyrimidin-4-yl]-3-phenyl-propane-1,2-diamine], the pIC50 was 6.00 to 7.00.

As for `N[C@H](CNc1nc(-c2ccncc2F)nc2c(-c3cc[nH]n3)csc12)Cc1ccccc1` [compound 416, (S)-N*1*-[2-(3-Fluoro-pyridin-4-yl)-7-(1H-pyrazol-3-yl)-thieno[3,2-d]pyrimidin-4-yl]-3-phenyl-propane-1,2-diamine], the negative-log IC50 (pIC50) is > 7.00. As to `Cn1ccc(-c2csc3c(NC[C@@H](N)Cc4ccccc4)nc(-c4ccncc4)nc23)n1` [compound 415, (S)-N*1*-[7-(1-Methyl-1H-pyrazol-3-yl)-2-pyridin-4-yl-thieno[3,2-d]pyrimidin-4-yl]-3-phenyl-propane-1,2-diamine], the negative logarithm of the IC50 (pIC50) was 5.00 to 6.00. On the same count and under the same terms, next, `Cc1ccc(OC(C)C)c(-c2c(C)sc3c(NC[C@@H](N)Cc4ccccc4)nc(-c4ccncc4)nc23)c1` [compound 458, (S)-N*1*-[7-(2-Isopropoxy-5-methyl-phenyl)-6-methyl-2-pyridin-4-yl-thieno[3,2-d]pyrimidin-4-yl]-3-phenyl-propane-1,2-diamine]: 4.40 to 5.00. Still for that read-out and setting: next, `CN1CCN(c2cccc(Nc3cc(-c4nc(N[C@@H]5CCNC5)c5sccc5n4)ccn3)c2)CC1` [compound 605, (2-{2-[3-(4-Methyl-piperazin-1-yl)-phenylamino]-pyridin-4-yl}-thieno[3,2-d]pyrimidin-4-yl)-(R)-pyrrolidin-3-yl-amine]: 6.00 to 7.00; `COc1ccncc1-c1c(C)sc2c(NC[C@@H](N)Cc3ccccc3)nc(-c3ccncc3)nc12` [compound 439, (S)-N*1*-[7-(4-Methoxy-pyridin-3-yl)-6-methyl-2-pyridin-4-yl-thieno[3,2-d]pyrimidin-4-yl]-3-phenyl-propane-1,2-diamine]: 4.40 to 5.00; `O=C(Nc1csc2c(N[C@@H]3CCNC3)nc(-c3ccncc3)nc12)C1CCCC1` [compound 475, Cyclopentanecarboxylic acid [2-pyridin-4-yl-4-((R)-pyrrolidin-3-ylamino)-thieno[3,2-d]pyrimidin-7-yl]-amide]: 4.40 to 5.00. Same read-out and setting: next, `CC#Cc1csc2c(NC[C@@H](N)Cc3ccccc3)nc(-c3ccncc3)nc12` [compound 542, (S)-3-Phenyl-N*1*-(7-prop-1-ynyl-2-pyridin-4-yl-thieno[3,2-d]pyrimidin-4-yl)-propane-1,2-diamine]: > 7.00. As to `CN(C)CCNc1nc(-c2ccncc2)nc2c(Br)csc12` [compound 339, N′-(7-Bromo-2-pyridin-4-yl-thieno[3,2-d]pyrimidin-4-yl)-N,N-dimethyl-ethane-1,2-diamine], the negative-log IC50 (pIC50) is 4.40 to 5.00. Same read-out and setting: with `COc1ncccc1-c1c(C)sc2c(NC[C@@H](N)Cc3ccccc3)nc(-c3ccncc3)nc12` [compound 465, (S)-N*1*-[7-(2-Methoxy-pyridin-3-yl)-6-methyl-2-pyridin-4-yl-thieno[3,2-d]pyrimidin-4-yl]-3-phenyl-propane-1,2-diamine] the figure was 4.40 to 5.00; with `c1cc(-c2nc(N[C@@H]3CCNC3)c3sccc3n2)cc(Nc2ccc(-c3ccsc3)cc2)n1` [compound 617, (R)-Pyrrolidin-3-yl-{2-[2-(4-thiophen-3-yl-phenylamino)-pyridin-4-yl]-thieno[3,2-d]pyrimidin-4-yl}-amine], 6.00 to 7.00. Still for that read-out and setting: next, `NC(=O)CN1C[C@H](Nc2nc(-c3ccnc(NC(=O)c4cccs4)c3)nc3ccsc23)[C@@H](O)C1` [compound 629, Thiophene-2-carboxylic acid {4-[4-((3S,4S)-1-carbamoylmethyl-4-hydroxy-pyrrolidin-3-ylamino)-thieno[3,2-d]pyrimidin-2-yl]-pyridin-2-yl}-amide]: 5.00 to 6.00.

As to `N[C@H](CNc1nc(-c2ccncc2)nc2c(-c3cc(C4CC4)[nH]n3)csc12)Cc1ccccc1` [compound 418, (S)-N*1*-[7-(5-Cyclopropyl-1H-pyrazol-3-yl)-2-pyridin-4-yl-thieno[3,2-d]pyrimidin-4-yl]-3-phenyl-propane-1,2-diamine], the pIC50 was 6.00 to 7.00.

The same experiment, now with this note: full length PKCi at 15 μM ATP; read-out: IC50 in IMAP assay against full length PKCi (Activity).
Consider `Cc1cccc(C[C@H](N)CNc2nc(-c3ccncc3)nc3sc4c(c23)CCCC4)c1` [compound 48, (S)-N*1*-(2-Pyridin-4-yl-5,6,7,8-tetrahydro-benzo[4,5]thieno[2,3-d]pyrimidin-4-yl)-3-m-tolyl-propane-1,2-diamine], for which the pIC50 was 6.00 to 7.00. The same measure, in the same setting: with `N[C@H](CNc1nc(-c2ccncc2)nc2sc3c(c12)CCC1(C3)OCCO1)Cc1ccccc1` [compound 78, (S)-3-Phenyl-N*1*-*-1,4-Dioxa-spiro[7.7]-(2-pyridin-4-yl-5,6,7,8-tetrahydro-benzo[4,5]thieno[2,3-d]pyrimidin-4-yl)-propane-1,2-diamine] the figure was 5.00 to 6.00; with `N[C@H](CNc1nc(-c2ccncc2)nc2sc3c(c12)CCCC3)Cc1cscn1` [compound 59, (S)-N*1*-(2-Pyridin-4-yl-5,6,7,8-tetrahydro-benzo[4,5]thieno[2,3-d]pyrimidin-4-yl)-3-thiazol-4-yl-propane-1,2-diamine], 6.00 to 7.00; with `N[C@@H](CNc1nc(-c2ccncc2)nc2sc3c(c12)CCCCC3)Cc1ccccc1` [compound 70, (R)-3-Phenyl-N*1*-(2-pyridin-4-yl-6,7,8,9-tetrahydro-5H-10-thia-1,3-diaza-benzo[a]azulen-4-yl)-propane-1,2-diamine], 5.00 to 6.00.

Broadly, the pIC50 is the IC50 on a negative log10 scale, so that one unit is a factor of ten.

Source of the values: US10183950B2, “Thienopyrimidine inhibitors of atypical protein kinase C” (Cancer Research Technology Limited, priority 2011, dated 2019).
